Assay: induction time of calcium oxalate crystallization in synthetic urine
Details: 200 mg/L calcium and 50 mg/L oxalate
Method: Thus, when there is neither magnesium nor phytate, the calcium oxalate takes 1 minute to crystallize. This time increases up to 10 minutes when […] magnesium is added and, in turn, it increases up to 44 minutes if, in addition to the 10 mg/L magnesium, 1 mg/L phytate is added.

Row | SMILES | induction times of crystallization t (0 mg/L phytate, 25 mg/L Mg) [min] | induction times of crystallization t (0 mg/L phytate, 75 mg/L Mg) [min] | induction times of crystallization t (0 mg/L phytate, 100 mg/L Mg) [min] | time calcium oxalate takes to crystallize (induction time) (100 mg/L magnesium, no phytate) [min] | induction times of crystallization t (0.5 mg/L phytate, 0 mg/L Mg) [min] | induction times of crystallization t (0.75 mg/L phytate, 0 mg/L Mg) [min] | induction times of crystallization t (1 mg/L phytate, 0 mg/L Mg) [min]
1 | [Mg+2] [Mg, magnesium] | 1.5 | 6 | 10 | 10 |  |  | 
2 | O=P(O)(O)O[C@H]1[C@H](OP(=O)(O)O)[C@@H](OP(=O)(O)O)[C@H](OP(=O)(O)O)[C@@H](OP(=O)(O)O)[C@H]1OP(=O)(O)O [phytate, myo-inositol-hexaphosphate] |  |  |  |  | 3 | 4 | 6.5

— patent US11213535B2, “Composition containing phytic acid, magnesium and polyphenols for the treatment or prevention of renal lithiasis” (UNIVERSITAT DE LES ILLES BALEARS, priority 2014, dated 2022)
